Values belong to the compound of their own block, whether it stands above or below them.
Columns and labels:
[1] = Absorbance and fluorescence emission spectra (SpectraMax M2); assay type: physicochemical; conditions: for λmax Absorp. (nm) / λmax Emission (nm): MKCA compound library; for λmax Absorp. (nm) / λmax Abs. (nm): absorbance maximum; for λmax Emission (nm) / λmax Em. (nm): fluorescence emission maximum; for λmax Abs. (nm) / λmax Em. (nm): MKAC compound library
In short: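 Spectroscopic data, including quantum yields, were recorded with a SpectraMax M2 instrument and analysed in GraphPrism.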

[2] = Quantum yield measurements versus Acridine Yellow in EtOH; assay type: physicochemical; conditions: for φ (quantum yield): excitation 460 nm; for φ (%): quantum yield
In short: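 Emission areas integrated over 510–700 nm were compared with Acridine Yellow in ethanol (Φ=0.47), all excited at 460 nm. The comparative equation was normalized to excitation-wavelength absorbance and solvent refractive index.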

SMILES: Nc1ccc(C2=C3C=CC(N4CCCCC4)=[N+]3[B-](F)(F)n3c2ccc3-n2cc(-c3cc(C(F)(F)F)cc(C(F)(F)F)c3)nn2)cc1 [BDC-30]
λmax Absorp. ([1]; BDC library, Table 2): 466 nm
λmax Emission ([1]; BDC library, Table 2): 547 nm
φ (quantum yield) ([2]; BDC library, Table 2): 0.57%

SMILES: CC(=O)Nc1ccc(C2=C3C=CC(N4CCCCC4)=[N+]3[B-](F)(F)n3c2ccc3-n2cc(CO)nn2)cc1 [BDCAC-70]
λmax Absorp. ([1]; BDCAC library, Table 3): 467 nm
λmax Emission ([1]; BDCAC library, Table 3): 583 nm
φ (quantum yield) ([2]; BDCAC library, Table 3): 0.7%

SMILES: CC(=O)Nc1ccc(C2=C3C=CC(N4CCCC4)=[N+]3[B-](F)(F)n3c2ccc3-n2cc(C3CCCC3)nn2)cc1 [MKAC215-5]
λmax Abs. (nm) [1]: 463 nm
λmax Em. (nm) [1]: 574 nm
φ (%) ([2]; MKAC compound library): 1.00%

SMILES: CCCCCCCc1cn(-c2ccc3n2[B-](F)(F)[N+]2=C(N4CCCCC4)C=CC2=C3c2ccc(NC(=O)CCl)cc2)nn1 [BDCCA-50]
λmax Absorp. ([1]; BDCCA library, Table 4): 466 nm
λmax Emission ([1]; BDCCA library, Table 4): 568 nm
φ (quantum yield) ([2]; BDCCA library, Table 4): 1.0%

SMILES: Nc1ccc(C2=C3C=CC(NCc4cc(F)cc(F)c4)=[N+]3[B-](F)(F)n3c2ccc3-n2cc(C3CCCC3)nn2)cc1 [MK412-5]
λmax Absorp. ([1]; MK library, Table 5): 476 nm
λmax Emission ([1]; MK library, Table 5): 567 nm
φ (quantum yield) ([2]; MK library, Table 5): 0.68%

SMILES: Nc1ccc(C2=C3C=CC(NCc4cc(F)cc(F)c4)=[N+]3[B-](F)(F)n3c2ccc3-n2cc(CC3CCCCC3)nn2)cc1 [MK412-8]
λmax Absorp. ([1]; MK library, Table 5): 476 nm
λmax Emission ([1]; MK library, Table 5): 563 nm
φ (quantum yield) ([2]; MK library, Table 5): 0.56%

SMILES: CC(=O)Nc1ccc(C2=C3C=CC(N4CC(C)OC(C)C4)=[N+]3[B-](F)(F)n3c2ccc3-n2cc(CC3CCCCC3)nn2)cc1 (stereo not drawn) [MKAC20-8]
λmax Abs. (nm) [1]: 466 nm
λmax Em. (nm) [1]: 583 nm
φ (%) ([2]; MKAC compound library): 4.98%

SMILES: CCCC(C)c1cn(-c2ccc3n2[B-](F)(F)[N+]2=C(N4CCCCC4)C=CC2=C3c2ccc(N)cc2)nn1 (stereo not drawn) [BDC-3]
λmax Absorp. ([1]; BDC library, Table 2): 475 nm
λmax Emission ([1]; BDC library, Table 2): 567 nm
φ (quantum yield) ([2]; BDC library, Table 2): 0.37%

SMILES: CN(C)c1ccc(-c2cn(-c3ccc4n3[B-](F)(F)[N+]3=C(N5CCCCC5)C=CC3=C4c3ccc(N)cc3)nn2)cc1 [BDC-13]
λmax Absorp. ([1]; BDC library, Table 2): 475 nm
λmax Emission ([1]; BDC library, Table 2): 616 nm
φ (quantum yield) ([2]; BDC library, Table 2): 0.03%

SMILES: CCCc1cn(-c2ccc3n2[B-](F)(F)[N+]2=C(N4CCCC4)C=CC2=C3c2ccc(NC(=O)CCl)cc2)nn1 [MKCA215-48]
λmax Absorp. (nm) [1]: 462 nm
λmax Emission (nm) [1]: 565 nm
φ (%) ([2]; MKCA compound library): 4.60%

Now from value to compound:

λmax Absorp. (nm) [1]: 462 nm
λmax Emission (nm) [1]: 561 nm
φ (%) ([2]; MKCA compound library): 24.66%
SMILES: CCOc1ccccc1CNC1=[N+]2C(=C(c3ccc(NC(=O)CCl)cc3)c3ccc(-n4cc(CN(C)Cc5ccccc5)nn4)n3[B-]2(F)F)C=C1 [MKCA103-18]

λmax Abs. (nm) [1]: 467 nm
λmax Em. (nm) [1]: 560 nm
φ (%) ([2]; MKAC compound library): 18.26%
SMILES: CC(=O)Nc1ccc(C2=C3C=CC(NCc4cc(F)cc(F)c4)=[N+]3[B-](F)(F)n3c2ccc3-n2cc(CC(C)C)nn2)cc1 [MKAC412-43]

λmax Absorp. (nm) [1]: 465 nm
λmax Emission (nm) [1]: 562 nm
φ (%) ([2]; MKCA compound library): 38.23%
SMILES: CCCc1cn(-c2ccc3n2[B-](F)(F)[N+]2=C(NCc4ccccc4OCC)C=CC2=C3c2ccc(NC(=O)CCl)cc2)nn1 [MKCA103-48]

λmax Abs. (nm) [1]: 465 nm
λmax Em. (nm) [1]: 562 nm
φ (%) ([2]; MKAC compound library): 18.11%
SMILES: CCOc1ccccc1CNC1=[N+]2C(=C(c3ccc(NC(C)=O)cc3)c3ccc(-n4cc(C5CCCC5)nn4)n3[B-]2(F)F)C=C1 [MKAC103-5]

λmax Absorp. ([1]; MK library, Table 5): 472 nm
λmax Emission ([1]; MK library, Table 5): 568 nm
φ (quantum yield) ([2]; MK library, Table 5): 1.96%
SMILES: CCOc1ccccc1CNC1=[N+]2C(=C(c3ccc(N)cc3)c3ccc(-n4cc(CCc5ccccc5)nn4)n3[B-]2(F)F)C=C1 [MK103-19]

λmax Absorp. ([1]; BDCCA library, Table 4): 465 nm
λmax Emission ([1]; BDCCA library, Table 4): 587 nm
φ (quantum yield) ([2]; BDCCA library, Table 4): 0.7%
SMILES: CN(Cc1ccccc1)Cc1cn(-c2ccc3n2[B-](F)(F)[N+]2=C(N4CCCCC4)C=CC2=C3c2ccc(NC(=O)CCl)cc2)nn1 [BDCCA-18]

λmax Absorp. ([1]; MK library, Table 5): 476 nm
λmax Emission ([1]; MK library, Table 5): 564 nm
φ (quantum yield) ([2]; MK library, Table 5): 0.46%
SMILES: CCCC(C)c1cn(-c2ccc3n2[B-](F)(F)[N+]2=C(N(C)Cc4ccccc4)C=CC2=C3c2ccc(N)cc2)nn1 (stereo not drawn) [MK195-3]

λmax Abs. (nm) [1]: 466 nm
λmax Em. (nm) [1]: 580 nm
φ (%) ([2]; MKAC compound library): 3.48%
SMILES: CC(=O)Nc1ccc(C2=C3C=CC(N(C)Cc4ccccc4)=[N+]3[B-](F)(F)n3c2ccc3-n2cc(CC(C)C)nn2)cc1 [MKAC195-43]

λmax Absorp. (nm) [1]: 468 nm
λmax Emission (nm) [1]: 581 nm
φ (%) ([2]; MKCA compound library): 2.61%
SMILES: O=C(CCl)Nc1ccc(C2=C3C=CC(N4CCc5ccccc5C4)=[N+]3[B-](F)(F)n3c2ccc3-n2cc(CO)nn2)cc1 [MKCA66-70]

λmax Abs. (nm) [1]: 464 nm
λmax Em. (nm) [1]: 563 nm
φ (%) ([2]; MKAC compound library): 10.37%
SMILES: COc1ccc(OC)c(CNC2=[N+]3C(=C(c4ccc(NC(C)=O)cc4)c4ccc(-n5cc(C6CCCC6)nn5)n4[B-]3(F)F)C=C2)c1 [MKAC181-5]

From US9513294B2, “Megastokes amino-triazolyl-BODIPY compounds and applications to live neuron staining and human serum albumin FA1 drug site probing” (National University of Singapore, priority 2012, dated 2016)
